Assays:
C33A cells [1] = assay: TUNEL apoptosis assay with cisplatin; type: cell-based, human; conditions: cisplatin vs control
Experimental: Cells were seeded in 6-well plates at a density between 30% and 50%. Following complete adhesion, various treatments were applied: PBS alone, cisplatin, or a combination of cisplatin and PCC16 for 4 h each. After incubation, the medium was replaced and the cells were rinsed with PBS. The cells were fixed with 4% paraformaldehyde for half an hour and washed again with PBS. To permeabilize the cells, PBS mixed with 0.3% Triton X-100 was added and the cells were incubated at room temperature for 5 min. A specific quantity of the terminal deoxynucleotidyl transferase dUTP nick end labeling (TUNEL) assay reagent was prepared and mixed. After washing the cells on coverslips with PBS twice, 50 µL of the TUNEL reagent was applied to each cell sample. These samples were then incubated at 37 °C in a dark environment for 60 min. The samples were then washed three times with PBS and stained with DAPI for 3–5 min, followed by washing with PBS twice. The final step involved mounting the samples for observation under a fluorescence microscope using an excitation wavelength range of 450–500 nm and an emission wavelength range of 515–565 nm to detect green fluorescence.

C33A cells [2] = assay: Colony formation assay with cisplatin; type: cell-based, human; conditions: vs control; 4 h treatment, then 7 days
Experimental: The procedure commenced by counting and seeding cancer cells into a 6-well plate, with each well containing approximately 1000 cells. Following complete cell adhesion, various treatments were applied to each well, including a control PBS solution, cisplatin alone, and a combination of cisplatin and PCC16. This was followed by a 4-h incubation period. Subsequently, the initial culture medium was discarded, and the cells were incubated for additional 7 days in a fresh complete medium, which was renewed every 2–3 days. The cultivation process was halted on the formation of visible colonies detectable under a microscope, with each colony comprising approximately 60–80 cells. Double washing with PBS was conducted, followed by a 20-min fixation of the cells using a tissue cell fixative. After fixation, the cells were washed twice with PBS and stained with 0.1% crystal violet for 20 min. After rinsing the excess stain with deionized water, the plates were air-dried at ambient temperature. The colonies were photographed for documentation, and the cell colony counts in each treatment group was recorded.

C33A cells [3] = assay: Ki67 proliferation assay with cisplatin; type: cell-based, human; conditions: cisplatin vs control
4T1 cells [4] = assay: Activity against ICB-resistant 4T1 tumors in vitro (PD-L1 blockers); type: cell-based, mouse
4T1 cells [5] = assay: 4T1 xenograft model in BALB/c mice, antitumor effect; type: in vivo, mouse
Experimental: Female BALB/c mice, aged 6–8 weeks and weighing approximately 20 g were procured from the Wuhan Experimental Animal Center, Hubei, China. In vivo studies assessing antitumor effects were performed according to the protocols of the Experimental Animal Welfare and Ethics Committee at Wuhan University. These studies complied with the National Research Council’s guidelines detailed in the “Guide for the Care and Use of Laboratory Animals.” Cells were harvested in an optimal growth phase with approximately 80% confluence, centrifuged to discard the supernatant, and 2 million 4T1 cells were resuspended in 125 µL of PBS. This cell suspension was subcutaneously injected into the dorsal flank of mice to initiate the tumor model. Tumor dimensions were regularly measured using calipers, and the volume was calculated using the following formula: (length × width²)/2. When the tumor volume was 80–100 mm³, the tumor-bearing mice were allocated for further in vivo investigation. […] The treatments were administered via tail vein injections on days 0, 2, 4, 6, 8, 10, and 12. Throughout the experiment, both the weight of the mice and tumor volume were recorded. On day 18, the mice were euthanized via cervical dislocation. The tumors were excised for measurement, photographic documentation, and weighing.

Row | Structure (SMILES) | apoptosis (C33A cells [1]) | number of C33A colonies (C33A cells [2]) | cell proliferation (Ki67) (C33A cells [3]) | effect on ICB-resistant tumors in vitro (4T1 cells [4]) | effect on ICB-resistant tumors in vivo (4T1 cells [5]; 4T1) | average tumor weight, percent of control group (4T1 cells [5]; 4T1 xenograft, BALB/c mice, tail vein days 0, 2, 4, 6, 8, 10, 12, n = 4) [%] | tumor weight and size (4T1 cells [5]; 4T1 xenograft, vs control, n = 4)
1 | N.N.[Cl][Pt][Cl] [cisplatin] | apoptosis increased | decreased | cell proliferation decreased | – | – | – | –
2 | Cc1c(COc2ccc(CN3CCCCC3C(=O)O)cc2Br)cccc1-c1ccccc1 (stereo not shown) [BMS-8] | – | – | – | no significant effect on ICB-resistant tumors | no significant effect on ICB-resistant tumors | 90.8 | slight decrease in weight and size
